# Patent US12643924B2, “Cardiac-specific targeting-peptide (CTP), compositions, and uses thereof” (University of Pittsburgh—Of the Commonwealth System of …, priority 2018, dated 2026)
# Where no end group is shown, it is not given here.
# Legend:
# H9C2 cells [1] = assay: Alanine scan: percentage of Cy5.5 positive H9C2 cells by FACS; assay type: cell-based, rat; settings: percentage of Cy5.5 positive H9C2 cells normalized to non-mutated peptide (SEQ ID NO: 1); Cy5.5-conjugated peptides, 30 minutes at 37° C.
# Protocol: (§1) Variants of SEQ ID NO: 1 in which every amino acid was systematically mutated to alanine were synthesized in the University of Pittsburgh Peptide Synthesis Facility. Each variant was conjugated to the Cyanine5.5 fluorescent dye (Cy5.5). The rat cardiomyocyte cell line H9C2 (ATCC, catalogue #: CRL-1446) was incubated for 30 minutes at 37° C. with Dimethyl sulfoxide (DMSO) as a control, or the alanine peptide variants. Cells were then washed 3 times with PBS, trypsinized and resuspended, stained for live/dead cells, and then FACS sorted for Cy5.5 positive cells.
# The percentage of Cy5.5 positive H9C2 cells, normalized to the non-mutated peptide (SEQ ID NO: 1), for each peptide variant is summarized in Table 2 below.
# H9C2 cells [2] = assay: Fluorescence activated cell sorting of H9C2 cells after 30 min incubation with 10 uM peptide (median Cy5.5); assay type: cell-based, rat; settings: for Corrected Median Cy5.5 / Raw Median Cy5.5: H9C2 cells, 30 min incubation, 10 uM peptide, single replicates; for Corrected Median Cy5.5: corrected for peptide fluorescence; for Average Correction: average of corrected median Cy5.5, H9C2 cells, FIG. 1C
# Protocol: as §1
# myocardial tissue = assay: Fluorescence intensity in myocardial tissue 15 minutes after injection of fluorescently-labeled CTP variants; assay type: in vivo; settings: mice; for fluorescence intensity in myocardial tissue compared to CTP: FIG. 6B
# Protocol: Additionally, fluorescently-labeled CTP variants (CTP, CTP-B, H4A, P2A) or fluorescently-labeled random peptide sequence (RAN) were injected into mice and fluorescence intensity was measured in fixed myocardial tissue. Mice were injected with peptides, and, 15 minutes after injection, heart tissue was dissected, cryosectioned, stained, and analyzed for fluorescence intensity.
# [3] = test system: H9C2 cells, MEF cells, 3T3 cells; assay: Transduction of cell lines by Cy5.5 labeled N- and C-terminal CTP variants (FACS); assay type: cell-based; settings: across all three cell lines; FIGS. 2A-2D
# Protocol: (§2) FIGS. 2A-2E are a series of bar graphs that show the transduction efficiencies and viability of various cell types incubated with Cy5.5 labeled cardiac-specific targeting peptide variants. […] CTP (Full Length): NH2-APWHLSSQYSRT-COOH (SEQ ID NO: 1); CTP-A: NH2-APWHLS-COOH (SEQ ID NO: 24); CTP-B: NH2-SQYSRT-COOH (CTP6aa; SEQ ID NO: 5); cyclic: cyclized version of the indicated peptide; CTP-Random: random, linear, 12-amino acid peptide (RAN: NH2-STLMKFCYVEQN-COOH ((SEQ ID NO: 26)); DMSO: Dimethyl sulfoxide.
# (§3) Solid-phase peptide synthesis were used to synthesize the full-length form (NH2-APWHLSSQYSRT-COOH (SEQ ID NO: 1)), as well as an N-terminus 6 amino acid called CTP-A (NH2-APWHLS-COOH (SEQ ID NO: 24)), or as CTP6aa (NH2-SQYSRT-COOH (SEQ ID NO: 5)) peptides. Full length and CTP6aa were also synthesized in a cyclic forms. A random, linear, 12-amino acid long peptide (RAN: NH2-STLMKFCYVEQN-COOH (SEQ ID NO: 26)) was also synthesized to serve as control. All peptides were fluorescently labeled with Cyanine5.5 (Cy5.5). Isolated, beating neonatal mouse cardiomyocytes (CMC) were incubated with 10 μM of the peptides at 37° C. for 30 minutes, washed extensively with PBS and confocal microscopy performed. […]
# H9C2 cells and MEFs = assay type: cell-based; settings: compared to full-length peptide and DMSO control; FIG. 2E
# Protocol: as §2, §3
substance,measurement,setting,value
"AAWHLSSQYSRT (also: Cy5.5 conjugate, site not given here) [P2A, alanine variant of CTP, Cy5.5 conjugated]",% transduction of H9C2 Cells,H9C2 cells [1],59.15%
same,Corrected Median Cy5.5,H9C2 cells [2]; listed as P2A_001,9901.8
same,Corrected Median Cy5.5,H9C2 cells [2]; listed as P2A_002,9298.9
same,Corrected Median Cy5.5,H9C2 cells [2]; listed as P2A_003,9488.4
same,Raw Median Cy5.5,H9C2 cells [2]; listed as P2A_001,9449
same,Raw Median Cy5.5,H9C2 cells [2]; listed as P2A_002,8834
same,Raw Median Cy5.5,H9C2 cells [2]; listed as P2A_003,9014
same,Average Correction,H9C2 cells [2],9535.0
same,fluorescence intensity in myocardial tissue compared to CTP,myocardial tissue,significantly greater
"APWHLSSQYSRA (also: Cy5.5 conjugate, site not given here) [T12A, alanine variant of CTP, Cy5.5 conjugated]",% transduction of H9C2 Cells,H9C2 cells [1],90.33%
same,Corrected Median Cy5.5,H9C2 cells [2]; listed as T12A_001,14307.2
same,Corrected Median Cy5.5,H9C2 cells [2]; listed as T12A_002,15682.3
same,Corrected Median Cy5.5,H9C2 cells [2]; listed as T12A_003,15498.6
same,Raw Median Cy5.5,H9C2 cells [2]; listed as T12A_001,18458
same,Raw Median Cy5.5,H9C2 cells [2]; listed as T12A_002,20232
same,Raw Median Cy5.5,H9C2 cells [2]; listed as T12A_003,19995
same,Average Correction,H9C2 cells [2],15162.7
"APWHLSSQYSRT (also: Cy5.5 label, site not given here) [CTP, 12-amino acid cardiac-specific targeting peptide, tested conjugated to Cy5.5]",% transduction of H9C2 Cells,H9C2 cells [1],100%
same,Corrected Median Cy5.5,H9C2 cells [2]; listed as CTP_001,5652.0
same,Corrected Median Cy5.5,H9C2 cells [2]; listed as CTP_002,6028.0
same,Corrected Median Cy5.5,H9C2 cells [2]; listed as CTP_003,6308.0
same,Raw Median Cy5.5,H9C2 cells [2]; listed as CTP_001,5652
same,Raw Median Cy5.5,H9C2 cells [2]; listed as CTP_002,6028
same,Raw Median Cy5.5,H9C2 cells [2]; listed as CTP_003,6308
same,Average Correction,H9C2 cells [2],5996
SQYSRT (Description of Artificial Sequence: Cardiac Targeting Peptide (CTP-B)) [linear six C-terminal amino acid cardiac-specific targeting peptide],Corrected Median Cy5.5,H9C2 cells [2]; listed as CTP-B_001,5663.7
same,Corrected Median Cy5.5,H9C2 cells [2]; listed as CTP-B_002,6469.2
same,Corrected Median Cy5.5,H9C2 cells [2]; listed as CTP-B_003,6240.8
same,Raw Median Cy5.5,H9C2 cells [2]; listed as CTP-B_001,4711
same,Raw Median Cy5.5,H9C2 cells [2]; listed as CTP-B_002,5381
same,Raw Median Cy5.5,H9C2 cells [2]; listed as CTP-B_003,5191
same,Average Correction,H9C2 cells [2],6124.6
same,transduction compared to the full-length peptide,[3],at least as well as the full-length peptide
same,cell viability,H9C2 cells and MEFs,did not alter cell viability
same,uptake compared to random peptide sequence and CTP,myocardial tissue,superior uptake
same,fluorescence intensity in myocardial tissue compared to CTP,myocardial tissue,significantly greater
